Conditions: 283.15 K, Liquid, Vibrating tube method

CCCCCCCC(=O)OCC(COC(=O)CCCCCCC)(COC(=O)CCCCCCC)COC(=O)CCCCCCC [pentaerythritol tetraoctanoate]
Conditions	mass density [kg/m3]
16618 kPa	979.5
16646 kPa	979.5
16674 kPa	979.5
16703 kPa	979.6
16736 kPa	979.5
16765 kPa	979.6
16794 kPa	979.5
16827 kPa	979.7
16856 kPa	979.7
16890 kPa	979.7
16919 kPa	979.7
16949 kPa	979.6
16980 kPa	979.7
17009 kPa	979.6
17039 kPa	979.7
17073 kPa	979.7
17102 kPa	979.7
17138 kPa	979.7
17168 kPa	979.9
17198 kPa	979.9
17227 kPa	979.7
17264 kPa	979.9
17293 kPa	979.9
17323 kPa	979.8
17360 kPa	979.9
17390 kPa	979.9
17427 kPa	979.9
17458 kPa	980
17488 kPa	980
17519 kPa	979.9
17556 kPa	980
17588 kPa	980
17619 kPa	980
17657 kPa	980
17688 kPa	980.1
17726 kPa	980.1
17758 kPa	980.1
17790 kPa	980.1
17823 kPa	980.2
17862 kPa	980.2
17894 kPa	980.2
17926 kPa	980.1
17966 kPa	980.2
17998 kPa	980.1
18037 kPa	980.2
18070 kPa	980.2
18103 kPa	980.3
18137 kPa	980.4
18177 kPa	980.3
18210 kPa	980.4
18244 kPa	980.4
18285 kPa	980.3
18319 kPa	980.3
18360 kPa	980.5
18394 kPa	980.4
18429 kPa	980.3
18470 kPa	980.4
18504 kPa	980.5
18539 kPa	980.6
18581 kPa	980.6
18616 kPa	980.6
18652 kPa	980.5
18694 kPa	980.6
18731 kPa	980.6
18766 kPa	980.8
18802 kPa	980.7
18846 kPa	980.7
18882 kPa	980.7
18919 kPa	980.7
18963 kPa	980.7
18999 kPa	980.8
19044 kPa	980.7
19081 kPa	980.7
19118 kPa	980.8
19155 kPa	980.8
19200 kPa	980.9
19238 kPa	980.9
19276 kPa	980.8
19320 kPa	980.9
19357 kPa	980.9
19394 kPa	980.9
19437 kPa	981
19472 kPa	980.9
19537 kPa	981
19587 kPa	981
19666 kPa	981.2
19710 kPa	981.2
19746 kPa	981.2
19773 kPa	981.1
19802 kPa	981.2
19829 kPa	981.2
19855 kPa	981.2
19888 kPa	981.2
19915 kPa	981.2
19942 kPa	981.4
19976 kPa	981.2
20003 kPa	981.3
20036 kPa	981.3
20064 kPa	981.4
20092 kPa	981.3
20120 kPa	981.4
20156 kPa	981.4
20180 kPa	981.4
20215 kPa	981.4
20244 kPa	981.3
20280 kPa	981.5
20310 kPa	981.5
20341 kPa	981.5
20376 kPa	981.5
20397 kPa	981.5
20414 kPa	981.5
20435 kPa	981.5
20452 kPa	981.6
20469 kPa	981.5
20490 kPa	981.5
20508 kPa	981.6
20525 kPa	981.6
20543 kPa	981.7
20563 kPa	981.5
20581 kPa	981.4
20598 kPa	981.6
20619 kPa	981.6
20637 kPa	981.5
20658 kPa	981.6
20676 kPa	981.7
20694 kPa	981.6
20715 kPa	981.7
20733 kPa	981.6
20751 kPa	981.7
20769 kPa	981.6
20790 kPa	981.8
20808 kPa	981.7
20830 kPa	981.8
20848 kPa	981.6
20866 kPa	981.7
20884 kPa	981.7
20905 kPa	981.7
20923 kPa	981.9
20942 kPa	981.7
20964 kPa	981.8
20982 kPa	981.9
21004 kPa	981.8
21022 kPa	981.9
21040 kPa	981.9
21059 kPa	981.9
21081 kPa	981.8
21099 kPa	981.9
21118 kPa	982
21140 kPa	981.8
21159 kPa	982
21181 kPa	982
21200 kPa	981.9
21219 kPa	981.9
21238 kPa	982
21258 kPa	981.8
21280 kPa	981.9
21299 kPa	982
21318 kPa	982
21341 kPa	982.1
21360 kPa	982
21379 kPa	982.1
21402 kPa	982.1
21421 kPa	982.1
21440 kPa	982
21460 kPa	982
21483 kPa	982
21502 kPa	982.1
21525 kPa	982.1
21545 kPa	982.1
21564 kPa	982.1
21584 kPa	982.1
21607 kPa	982.2
21626 kPa	982
21647 kPa	982.2
21670 kPa	982.1
21690 kPa	982.2
21710 kPa	982.1
21730 kPa	982
21755 kPa	982.2
21775 kPa	982.2
21795 kPa	982.3
21815 kPa	982.3
21839 kPa	982.3
21859 kPa	982.2
21879 kPa	982.2
21898 kPa	982.2
21922 kPa	982.3
21943 kPa	982.2
21963 kPa	982.3
21987 kPa	982.4
22008 kPa	982.4
22033 kPa	982.3
22054 kPa	982.4
22074 kPa	982.4
22094 kPa	982.3
22115 kPa	982.4
22140 kPa	982.4
22160 kPa	982.5
22185 kPa	982.5
22205 kPa	982.4
22226 kPa	982.4
22251 kPa	982.5
22271 kPa	982.4
22292 kPa	982.4
22318 kPa	982.5
22339 kPa	982.5
22360 kPa	982.5
22382 kPa	982.4
22407 kPa	982.7
22428 kPa	982.6
22453 kPa	982.7
22474 kPa	982.6
22496 kPa	982.5
22517 kPa	982.5
22543 kPa	982.6
22564 kPa	982.6
22586 kPa	982.4
22612 kPa	982.6
22634 kPa	982.6
22655 kPa	982.6
22681 kPa	982.8
22703 kPa	982.7
22725 kPa	982.7
22822 kPa	982.8
22844 kPa	982.8
22866 kPa	982.8
22889 kPa	982.8
22916 kPa	982.7
22938 kPa	982.9
22961 kPa	982.8
22987 kPa	982.8
23010 kPa	982.8
23032 kPa	982.9
23059 kPa	982.8
23082 kPa	982.9
23104 kPa	982.8
23132 kPa	983
23154 kPa	982.9
23177 kPa	982.9
23204 kPa	982.9
23227 kPa	982.9
23250 kPa	983
23278 kPa	983
23301 kPa	982.9
23324 kPa	983
23348 kPa	982.9
23375 kPa	983.1
23398 kPa	983.1
23422 kPa	983.1
23450 kPa	983
23473 kPa	983
23497 kPa	983.1
23525 kPa	983.2
23549 kPa	983.1
23573 kPa	983.2
23597 kPa	983.1
23625 kPa	983.2
23649 kPa	983.1
23672 kPa	983.2
23701 kPa	983.3
23725 kPa	983.2
23753 kPa	983.2
23777 kPa	983.1
23801 kPa	983.2
23831 kPa	983.2
23857 kPa	983.3
23881 kPa	983.3
23905 kPa	983.4
23934 kPa	983.2
23959 kPa	983.3
23983 kPa	983.4
24008 kPa	983.3
24038 kPa	983.2
24062 kPa	983.4
24087 kPa	983.3
24117 kPa	983.4
24142 kPa	983.3
24168 kPa	983.5
24194 kPa	983.5
24219 kPa	983.5
24248 kPa	983.5
24273 kPa	983.5
24304 kPa	983.4
24329 kPa	983.6
24354 kPa	983.5
24385 kPa	983.5
24410 kPa	983.5
24436 kPa	983.5
24466 kPa	983.6
24492 kPa	983.7
24518 kPa	983.6
24544 kPa	983.7
24576 kPa	983.6
24601 kPa	983.7
24632 kPa	983.6

Source: the NIST ThermoML archive (doi:10.1021/je060271a)
